Like-named read-outs stand apart in the source and are kept apart here.
Legend:
SW-629 (Colon Cancer) = assay: NCI five-dose SRB assay; type: cell-based; conditions: Homo sapiens, 48 h
[1] = test system: MDA-MB-468 (Breast Cancer); assay: NCI five-dose SRB assay; type: cell-based; conditions: Homo sapiens, 48 h
HT29 (Colon Cancer) = assay: NCI five-dose SRB assay; type: cell-based; conditions: Homo sapiens, HT-29, 48 h
BT-549 (Breast Cancer) = assay: NCI five-dose SRB assay; type: cell-based; conditions: Homo sapiens, 48 h
UACC-62 (Melanoma) = assay: NCI five-dose SRB assay; type: cell-based; conditions: Homo sapiens, 48 h
[2] = test system: MDA-MB-231/ATCC (Breast Cancer); assay: NCI five-dose SRB assay; type: cell-based; conditions: Homo sapiens, 48 h
A549 (lung) = assay: MTT assay of cell viability; conditions: Homo sapiens, A549, 72 h
KM12 (Colon Cancer) [3] = assay: NCI one-dose SRB assay; conditions: 10 μM, 48 h
Protocol: A primary anticancer assay was performed on a panel of approximately sixty human tumor cell lines derived from nine neoplastic diseases, in accordance with the protocol of the Drug Evaluation Branch, National Cancer Institute, Bethesda [31, 32, 33, 34, 35]. Tested compounds were added to the culture at a single concentration (10^−5 M) and the cultures were incubated for 48 h. End point determinations were made with a protein binding dye, Sulphorhodamine B (SRB). […] The percentage growth was evaluated spectrophotometrically versus controls not treated with test agents.

[4] = test system: MCF-7 breast cancer cells; assay: Annexin V-FITC/PI binding assay (flow cytometry); conditions: MCF-7, 5 µM, 24 h; control 4.4 ± 0.6%
[5] = test system: full panel of human tumor cell lines (MG_MID); assay: NCI five-dose SRB assay, full panel; type: cell-based
Protocol: Using absorbance measurements [time zero (Tz), control growth in the absence of drug (C), and test growth in the presence of drug (Ti)], the percentage growth was calculated for each drug concentration. Percentage growth inhibition was calculated as:
Dose response parameters (GI50, TGI, LC50) were calculated for each compound. […] The drug concentration resulting in total growth inhibition (TGI) was calculated from Ti = Tz. […] Values were calculated for each of these parameters if the level of activity was reached; however, if the effect was not reached or was excessive, the value for that parameter was expressed as more or less than the maximum or minimum concentration tested.

[6] = test system: Melanoma cell lines (MG_MID); assay: NCI five-dose SRB assay; type: cell-based; conditions: Homo sapiens, 48 h
SR (Leukemia) = assay: NCI five-dose SRB assay; type: cell-based; conditions: Homo sapiens, 48 h
CCRF-CEM (Leukemia) = assay: NCI five-dose SRB assay; type: cell-based; conditions: Homo sapiens, 48 h
RPMI-8226 (Leukemia) = assay: NCI five-dose SRB assay; type: cell-based; conditions: Homo sapiens, 48 h
M14 (Melanoma) = assay: NCI five-dose SRB assay; type: cell-based; conditions: Homo sapiens, 48 h
[7] = test system: NCI-H460 (Non-Small Cell Lung Cancer); assay: NCI one-dose SRB assay; conditions: 10 μM, 48 h
Protocol: Tested compounds were added to the culture at a single concentration (10^−5 M) and the cultures were incubated for 48 h. End point determinations were made with a protein binding dye, Sulphorhodamine B (SRB). […] The percentage growth was evaluated spectrophotometrically versus controls not treated with test agents.

[8] = test system: NCI-H226 (Non-Small Cell Lung Cancer); assay: NCI five-dose SRB assay; type: cell-based; conditions: Homo sapiens, 48 h
SF-539 (CNS Cancer) = assay: NCI five-dose SRB assay; type: cell-based; conditions: Homo sapiens, 48 h
Colo 205 (Colon Cancer) = assay: NCI five-dose SRB assay; type: cell-based; conditions: Homo sapiens, 48 h
MCF-7 cells = assay: Chemical synthetic lethality: MTT after preincubation with MGMT inhibitor Lomeguatrib; type: cell-based, human; conditions: for IC50: Homo sapiens, MCF7, 72 h MTT
[9] = test system: BALB-3T3 (normal mouse fibroblasts); assay: MTT assay of cell viability; conditions: BALB/3T3, 72 h
ACHN (Renal Cancer) = assay: NCI five-dose SRB assay; type: cell-based; conditions: Homo sapiens, 48 h
[10] = test system: CNS Cancer cell lines (MG_MID); assay: NCI five-dose SRB assay; type: cell-based; conditions: Homo sapiens, 48 h
[11] = test system: HOP-62 (Non-Small Cell Lung Cancer); assay: NCI five-dose SRB assay; type: cell-based; conditions: Homo sapiens, 48 h
[12] = test system: Ovarian Cancer cell lines (MG_MID); assay: NCI five-dose SRB assay; type: cell-based; conditions: Homo sapiens, 48 h
KM12 (Colon Cancer) [13] = assay: NCI five-dose SRB assay; type: cell-based; conditions: Homo sapiens, 48 h
MDA-MB-435 (Melanoma) = assay: NCI five-dose SRB assay; type: cell-based; conditions: Homo sapiens, 48 h
TK-10 (Renal Cancer) = assay: NCI five-dose SRB assay; type: cell-based; conditions: Homo sapiens, 48 h
[14] = test system: human epidermal keratinocytes of HaCaT line; assay: MTT assay of cell viability; conditions: 72 h
SF-295 (CNS Cancer) = assay: NCI five-dose SRB assay; type: cell-based; conditions: Homo sapiens, 48 h
A498 (Renal Cancer) = assay: NCI five-dose SRB assay; type: cell-based; conditions: Homo sapiens, 48 h
[15] = test system: Prostate Cancer cell lines (MG_MID); assay: NCI five-dose SRB assay; type: cell-based; conditions: Homo sapiens, 48 h
OVCAR-5 (Ovarian Cancer) = assay: NCI five-dose SRB assay; type: cell-based; conditions: Homo sapiens, 48 h
MOLT-4 (Leukemia) = assay: NCI five-dose SRB assay; type: cell-based; conditions: Homo sapiens, 48 h
SK-OV-3 (ovarian) = assay: MTT assay of cell viability; conditions: Homo sapiens, SK-OV-3, 72 h
IGROV-1 (Ovarian Cancer) = assay: NCI five-dose SRB assay; type: cell-based; conditions: Homo sapiens, 48 h
SK-MEL-2 (Melanoma) = assay: NCI five-dose SRB assay; type: cell-based; conditions: Homo sapiens, 48 h
[16] = test system: NCI-H23 (Non-Small Cell Lung Cancer); assay: NCI five-dose SRB assay; type: cell-based; conditions: Homo sapiens, 48 h
UO-31 (Renal Cancer) = assay: NCI five-dose SRB assay; type: cell-based; conditions: Homo sapiens, 48 h
HCT-116 (Colon Cancer) = assay: NCI five-dose SRB assay; type: cell-based; conditions: Homo sapiens, 48 h
HS 578T (Breast Cancer) = assay: NCI five-dose SRB assay; type: cell-based; conditions: Homo sapiens, 48 h

CCOC(=O)c1ccc(NC(=O)CSC(CC(=O)c2sc(Nc3ccccn3)nc2C)c2ccccc2F)cc1 (centres unmarked) [Compound 4, Ethyl 4-[[2-[1-(2-Fluorophenyl)-3-[4-methyl-2-(2-pyridylamino)thiazol-5-yl]-3-oxopropyl]sulfanylacetyl]amino]benzoate]
GI50 (SW-629 (Colon Cancer)): 75.3 µM | GI50 [1]: 4.24 µM | GI50 (HT29 (Colon Cancer)): 58.3 µM | GI50 (BT-549 (Breast Cancer)): 14.7 µM | GI50 (UACC-62 (Melanoma)): 16.1 µM | GI50 [2]: 19.3 µM | IC50 (A549 (lung)): 8.05 ± 0.24 µM | Growth % (KM12 (Colon Cancer) [3]): −59.82% | apoptotic cells (sum of early and late apoptotic cells) [4]: 42.7 ± 7.0% | GI50 ([5]; Homo sapiens, RPMI-8226, NCI-H226, SNB-75, SF 539, M14, MDA-MB-435, UO-31, RXF 393, MDA-MB-468, read-out: active concentration range (GI50) towards most sensitive lines): 2.52 to 8.29 µM | GI50 ([5]; Homo sapiens, full panel MG_MID (average GI50), 48 h, read-out: GI50): 31.7 µM | LC50 (concentration giving 50% net tumour cell kill) ([5]; Homo sapiens, full panel, mainly): > 100 µM | TGI ([5]; full panel, mainly): > 100 µM | GI50 [6]: 25.3 µM | GI50 (SR (Leukemia)): 24.1 µM | GI50 (CCRF-CEM (Leukemia)): 18.6 µM | GI50 (RPMI-8226 (Leukemia)): 8.29 µM | GI50 (M14 (Melanoma)): 19.4 µM | Growth % [7]: −40.69% | GI50 [8]: 2.52 µM | GI50 (SF-539 (CNS Cancer)): 32.5 µM | GI50 (Colo 205 (Colon Cancer)): > 100 µM | IC50 (MCF-7 cells; MCF-7, 3 h preincubation with Lomeguatrib, read-out: IC50 with the MGMT inhibitor): 0.72 µM | IC50 (MCF-7 cells; MCF-7, compound alone, read-out: IC50): 2.28 µM | enhancement of sensitivity by Lomeguatrib preincubation (MCF-7 cells; MCF-7): 3 times | combination effect with the MGMT inhibitor (MCF-7 cells; MCF-7, compared with individual treatments): synergistic activity | IC50 [9]: 7.79 ± 0.38 µM | GI50 (ACHN (Renal Cancer)): 45.6 µM | GI50 [10]: 32.7 µM | GI50 [11]: 37.5 µM | GI50 [12]: 41.1 µM | GI50 (KM12 (Colon Cancer) [13]): 55.6 µM | GI50 (MDA-MB-435 (Melanoma)): 26.3 µM | GI50 (TK-10 (Renal Cancer)): 82.3 µM | IC50 [14]: > 50 µM | GI50 (SF-295 (CNS Cancer)): 32.2 µM | GI50 (A498 (Renal Cancer)): 69.2 µM | GI50 [15]: 45.5 µM | GI50 (OVCAR-5 (Ovarian Cancer)): 74.4 µM | GI50 (MOLT-4 (Leukemia)): 32.2 µM | IC50 (SK-OV-3 (ovarian)): 7.87 ± 0.23 µM | GI50 (IGROV-1 (Ovarian Cancer)): 12.1 µM | GI50 (SK-MEL-2 (Melanoma)): 44.9 µM | GI50 [16]: 22.7 µM | GI50 (UO-31 (Renal Cancer)): 3.19 µM | GI50 (HCT-116 (Colon Cancer)): 23 µM | GI50 (HS 578T (Breast Cancer)): 14.9 µM

— PMC9570594, “Development of Novel Pyridine-Thiazole Hybrid Molecules as Potential Anticancer Agents” (Molecules, 2022)
